The values below come from patent publication US20050261130A1, “Novel surfactants and formulations” (Monsanto Technology LLC, priority 2000, published 2005).

For this test, the system named is Velvetleaf (ABUTH) and Japanese millet (ECHCF). Put plainly: Greenhouse herbicidal effectiveness, overall statements for both weeds. Type of test: in vivo, Abutilon theophrasti; Echinochloa crus-galli. The following applies: summary sentence of the respective Example. An excerpt: The herbicidal effectiveness data set forth herein report “inhibition” as a percentage following a standard procedure in the art which reflects a visual assessment of plant mortality and growth reduction by comparison with untreated plants, made by technicians specially trained to make and record such observations. In all cases, a single technician makes all assessments of percent inhibition within any one experiment or trial. Such measurements are relied upon and regularly reported by Monsanto Company in the course of its herbicide business.
The following procedure was used for testing compositions of the Examples to determine herbicidal effectiveness, except where otherwise indicated. […]
Pots were assigned to different treatments in a fully randomized experimental design with 6 replications. A set of pots was left untreated as a reference against which effects of the treatments could later be evaluated.
Application of glyphosate compositions was made by spraying with a track sprayer fitted with a 9501 E nozzle calibrated to deliver a spray volume of 93 liters per hectare (l/ha) at a pressure of 165 kilopascals (kPa). After treatment, pots were returned to the greenhouse until ready for evaluation. […]

With “(C12-14)O(CHCH3CH2)O—(CHCH3CH2)N(EO)x(EO)y x + y = 5 [Composition M121]”, the “Herbicidal effectiveness overall or on both ABUTH and ECHCF, comparison in words” value was “more effective for potentiating the IPA”.
